# Data as given in US20160279079A1, “COMPOSITIONS AND METHODS FOR TREATING BONE DISEASES” (INDIANA UNIVERSITY RESEARCH AND TECHNOLOGY CORPORATION, priority 2013, published 2016).
# How the values were obtained:
# Type in all cases: cell-based, mouse
# [1] = test system: c-Fos; experiment: Quantitative real-time PCR, c-Fos mRNA in RAW264.7 cells
# Procedure: (§1) METHOD EXAMPLE. Quantitative real-time PCR. Total RNA was extracted using an RNeasy Plus mini kit (Qiagen, Germantown, Md., USA). Reverse transcription was conducted with high capacity cDNA reverse transcription kits (Applied Biosystems, Carlsbad, Calif., USA), and quantitative real-time PCR was performed using ABI 7500 with Power SYBR green PCR master mix kits (Applied Biosystems). We evaluated mRNA levels of ATF4, Osteocalcin (OCN), NFATcl, c-Fos, tartrate-resistant acid phosphatase (TRAP), and osteoclast-associated receptor (OSCAR) with the PCR primers listed in Table 1. GAPDH was used for internal control. The relative mRNA abundance for the selected genes with respect to the level of GAPDH mRNA was expressed as a ratio of Streated/Scontrol, where Streated=mRNA level for the cells treated with chemical agents, and Scontrol=mRNA level for control cells.
# (§2) METHOD EXAMPLE. Partial suppression of mRNA levels of NFATcl, c-Fos, TRAP, and OSCAR by salubrinal. […] On day 2, for instance, the RANKL-driven increase was 9.4±0.5 fold (NFATcl), 1.9±0.1 fold (c-fos), 165±4.2 fold (TRAP), and 467±22 fold (OSCAR). The reduction by 20 μM salubrinal was 46% (NFATcl), 32% (c-fos), 35% (TRAP), and 21% (OSCAR) (FIG. 5A).
# (§3) METHOD EXAMPLE. Reduction of RANKL-induced NFATcl, c-Fos, TRAP, and OSCAR by guanabenz. […] The normalized level of “1” was defined as the level for the cells that were not treated with RANKL without administration of guanabenz.
# [2] = test system: p-eIF2α; experiment: Western immunoblotting, p-eIF2α in MC3T3 E1-14 cells
# Procedure: (§4) METHOD EXAMPLE. Western Immunoblotting. Cells were lysed in a radioimmunoprecipitation assay (RIPA) buffer containing protease inhibitors (Santa Cruz Biotechnology, Santa Cruz, Calif., USA) and phosphatase inhibitors (Calbiochem, Billerica, Mass., USA). Isolated proteins were fractionated using 10-15% SDS gels and electro-transferred to Immobilon-P membranes (Millipore, Billerica, Mass., USA). The membrane was incubated for 1 h with primary antibodies followed by 45 min incubation with goat anti-rabbit or anti-mouse IgG conjugated with horseradish peroxidase (Cell Signaling, Danvers, Mass., USA). We used antibodies against ATF4, NFATcl (Santa Cruz), p-eIF2α (Thermo Scientific, Waltham, Mass., USA), eIF2α, caspase 3, cleaved caspase 3, p38 and p-p38 mitogen activated protein kinase (MAPK), extracellular signal-regulated kinase (ERK) and p-ERK, nuclear factor kappa B (NFκB) p65 and p-NFκB p65 (Cell Signaling), and β-actin (Sigma). Protein levels were assayed using a SuperSignal west femto maximum sensitivity substrate (Thermo Scientific), and signal intensities were quantified with a luminescent image analyzer (LAS-3000, Fuji Film, Tokyo, Japan).
# (§5) METHOD EXAMPLE. ATF4-mediated elevation of osteocalcin mRNA in MC3T3 E1-14 cells. Salubrinal is an inhibitor of de-phosphorylation of eIF2α. […]
# [3] = test system: RAW264.7 cells; experiment: Osteoclastogenesis in vitro and TRAP staining; settings: for growth area covered by multi-nucleated cells: dose dependent; for number of TRAP-positive multi-nucleated cells: with 20 ng/ml RANKL, 5 days of culture
# Procedure: METHOD EXAMPLE. Inhibition of osteoclastogenesis of RAW264.7 cells by salubrinal. The primary aim of this study is to evaluate the effects of salubrinal on osteoclastogenesis. In response to 0.1-20 μM salubrinal for 24 h, cell mortality and live cell numbers of RAW264.7 pre-osteoclasts was examined. […] The number of live cells was increased by ˜50% by incubation with RANKL, and administration of 10-20 μM salubrinal reduced the numbers approximately by 10% (FIG. 3B).
# METHOD EXAMPLE. Inhibitory effects of guanabenz on osteoclastogenesis of RAW264.7 cells. To further examine a potential involvement of p-eIF2α in regulation of osteoclastogenesis, we employed guanabenz that also acts as an inhibitor of de-phosphorylation of eIF2α was evaluated. […] Compared to the number of TRAP-positive multi-nucleated cells of 377 39 (RANKL only), guanabenz reduced the number of differentiated osteoclasts to 364±38 (1 μM), 288±51 (5 μM), 189±25 (10 μM), and 73±16 (20 μM).
# METHOD EXAMPLE. Osteoclastogenesis in vitro and TRAP (Tartrate-resistant acid phosphatase) staining. RAW264.7 cells were plated at a density of 5×10^3/cm^2 into a 12-well or a 60 mm dish, and cultured with 20 ng/ml RANKL in the presence and absence of salubrinal or guanabenz. The culture medium was replaced every 2 days. After 5 days of culture, the cells were stained for TRAP staining using an acid phosphatase leukocyte kit (Sigma). The number of TRAP-positive cells containing three or more nuclei was determined
# [4] = test system: tartrate-resistant acid phosphatase (TRAP); experiment: Quantitative real-time PCR, TRAP mRNA in RAW264.7 cells; settings: for expression of TRAP: absence of RANKL administration
# Procedure: as §1, §2, §3
# [5] = test system: ATF4; experiment: Western immunoblotting, ATF4 in MC3T3 E1-14 cells
# Procedure: as §4, §5
# [6] = 20 μM salubrinal, day 2 after RANKL
# [7] = 20 μM guanabenz, 2 days after RANKL
SMILES,"reduction of c-fos mRNA level [1, 6]","c-fos mRNA level ([1]; 0.1-1 μM salubrinal, with RANKL, except on day 4)",phosphorylation of eIF2α ([2]; 5 μM salubrinal),"number of TRAP-positive cells ([3]; 0.5 μM to 20 μM salubrinal, with RANKL)",growth area covered by multi-nucleated cells [3],"reduction of TRAP mRNA level [4, 6]","TRAP mRNA level ([4]; 0.1-1 μM salubrinal, with RANKL, day 2 and day 4)",expression of TRAP [4],ATF4 expression ([5]; 5 μM salubrinal),"c-Fos mRNA level [1, 7]",p-eIF2α ([2]; guanabenz),number of TRAP-positive multi-nucleated cells ([3]; 1 μM),number of TRAP-positive multi-nucleated cells ([3]; 5 μM),number of TRAP-positive multi-nucleated cells ([3]; 10 μM),number of TRAP-positive multi-nucleated cells ([3]; 20 μM),"osteoclastogenesis of RAW264.7 cells ([3]; guanabenz dose response, with RANKL)","TRAP mRNA level [4, 7]","TRAP mRNA level ([4]; 5 and 10 μM guanabenz, 2 days after RANKL)",ATF4 ([5]; guanabenz)
O=C(/C=C/c1ccccc1)NC(NC(=S)Nc1cccc2cccnc12)C(Cl)(Cl)Cl (stereo not drawn) [salubrinal],32%,did not contribute to significant reduction,elevated phosphorylation of eIF2α,reduced the number of TRAP-positive cells in a dose dependent manner,significantly reduced,35%,did not contribute to significant reduction,did not significantly alter,increase in ATF4 expression,,,,,,,,,,
N=C(N)N/N=C/c1c(Cl)cccc1Cl [guanabenz],,,,,significantly reduced,,,did not significantly alter,,reduced,increase in p-eIF2α and ATF4,364±38,288±51,189±25,73±16,attenuated osteoclastogenesis of RAW264.7 cells in a dose dependent manner,reduced,effective in reducing,increase in p-eIF2α and ATF4
